Measurements taken from US10392378B2, “Derivatives of 5-phenyl- or 5-heteroarylathiazol-2-carboxylic amide useful for the treatment of inter alia cystic fibrosis” (Proteostasis Therapeutics, Inc., priority 2014, dated 2019).

Tests used:
ΔF508-CFTR [1] = biological target: T1, ΔF508-CFTR (Homo sapiens, UniProt P13569, DEL508-508); test: hBE equivalent current (Ieq) assay; type: cell-based; conditions: compound at 10 uM and VX-809 at 1 uM; primary hBE cells homozygous ΔF508; 24 hours treatment
T1 construct: Primary lung epithelial cells homozygous for the Cystic Fibrosis-causing ΔF508 mutation; endogenous in cells; host or cells: primary human bronchial (lung) epithelial cells homozygous for ΔF508, differentiated at air-liquid interface
T1 sequence (P13569 with tags, fused parts or gaps DEL508-508): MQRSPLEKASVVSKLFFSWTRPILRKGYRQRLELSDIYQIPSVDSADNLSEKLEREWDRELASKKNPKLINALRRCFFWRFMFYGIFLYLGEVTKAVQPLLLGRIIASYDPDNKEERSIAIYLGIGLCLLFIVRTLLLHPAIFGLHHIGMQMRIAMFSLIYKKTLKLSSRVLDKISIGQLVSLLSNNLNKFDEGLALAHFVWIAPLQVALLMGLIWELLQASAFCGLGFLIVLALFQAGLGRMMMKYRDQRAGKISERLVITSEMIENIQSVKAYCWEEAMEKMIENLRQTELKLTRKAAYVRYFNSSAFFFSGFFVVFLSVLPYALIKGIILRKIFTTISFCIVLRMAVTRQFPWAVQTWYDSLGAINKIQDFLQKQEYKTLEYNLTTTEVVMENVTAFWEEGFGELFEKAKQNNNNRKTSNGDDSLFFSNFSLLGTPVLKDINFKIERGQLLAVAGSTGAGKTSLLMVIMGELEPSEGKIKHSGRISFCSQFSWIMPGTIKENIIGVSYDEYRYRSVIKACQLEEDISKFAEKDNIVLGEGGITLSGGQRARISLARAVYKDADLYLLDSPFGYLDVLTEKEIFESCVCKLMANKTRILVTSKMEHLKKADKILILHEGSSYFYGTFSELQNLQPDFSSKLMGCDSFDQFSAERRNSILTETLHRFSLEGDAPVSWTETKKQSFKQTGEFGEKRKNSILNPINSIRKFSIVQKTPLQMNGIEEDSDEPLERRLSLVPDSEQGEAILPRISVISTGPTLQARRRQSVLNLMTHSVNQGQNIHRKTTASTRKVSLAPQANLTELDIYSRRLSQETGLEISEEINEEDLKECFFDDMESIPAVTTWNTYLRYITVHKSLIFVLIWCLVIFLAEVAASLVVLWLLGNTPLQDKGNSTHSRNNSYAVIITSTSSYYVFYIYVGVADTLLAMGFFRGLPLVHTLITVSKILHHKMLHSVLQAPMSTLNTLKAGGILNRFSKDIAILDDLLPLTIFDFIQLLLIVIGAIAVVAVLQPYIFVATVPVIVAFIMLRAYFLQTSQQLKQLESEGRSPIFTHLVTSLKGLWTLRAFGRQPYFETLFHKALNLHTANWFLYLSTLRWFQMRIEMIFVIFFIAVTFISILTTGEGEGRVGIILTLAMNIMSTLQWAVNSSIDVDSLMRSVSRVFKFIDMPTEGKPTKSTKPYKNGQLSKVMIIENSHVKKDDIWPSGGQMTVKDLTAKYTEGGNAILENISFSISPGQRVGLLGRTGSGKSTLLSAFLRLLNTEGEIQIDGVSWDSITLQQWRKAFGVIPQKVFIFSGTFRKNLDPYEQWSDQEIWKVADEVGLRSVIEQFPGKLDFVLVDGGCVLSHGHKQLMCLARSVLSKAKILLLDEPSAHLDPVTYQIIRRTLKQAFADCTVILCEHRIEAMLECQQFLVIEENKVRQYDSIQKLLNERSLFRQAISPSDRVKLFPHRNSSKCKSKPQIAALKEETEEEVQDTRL
Method: Primary lung epithelial cells homozygous for the Cystic Fibrosis-causing ΔF508 mutation were differentiated for a minimum of 4 weeks in an air-liquid interface on Costar 24 well HTS filter plates prior to the equivalent current (Ieq) measurements. Cells were apically mucus-washed for 30 minutes 24h prior to treatment with compounds. The basolateral media was removed and replaced with media containing the compound of interest diluted to its final concentration from DMSO stocks. Treated cells were incubated at 37° C. and 5% CO2 for 24 hours. At the end of the treatment period, the media was changed to the Ieq experimental solution for 30 minutes before the experiment and plates are maintained in a CO2-free incubator during this period. The plates containing the cells were then placed in pre-warmed heating blocks at 36° C.±0.5 for 15 minutes before measurements are taken. The transepithelial voltage (VT) and conductance (GT) were measured using a custom 24 channel current clamp (TECC-24) with 24 well electrode manifold. The Ieq assay measurements were made following additions with standardized time periods: • 1. The baseline VT and GT values were measured for approximately 20 minutes. • 2. Benzamil was added to block ENaC for 15 minutes. • 3. Forskolin plus VX-770 were added to maximally activate ΔF508-CFTR for 27 minutes. • 4. Bumetanide was added to inhibit the NaK2Cl cotransporter and shut-off secretion of chloride.
The activity data captured was the area under the curve (AUC) for the traces of the equivalent chloride current. The AUC was collected from the time of the forskolin/VX-770 addition until the inhibition by bumetanide addition. Correction in response to compound treatment was scored as the increase in the AUC for compound-treated samples over that of vehicle-treated samples. (** indicates activity ≥200% of VX-809 (1 uM) with compound at 10 uM and VX-809 at 1 uM; * indicates activity 100-200% of VX-809 (1 uM) with compound at 10 uM and VX-809 at 1 uM. ^##indicates activity ≥200% of VX-809 (3 uM) with compound at 10 uM and VX-809 at 3 uM; ^#indicates activity 100-200% of VX-809 (3 uM) with compound at 10 uM and VX-809 at 3 uM

ΔF508-CFTR [2] = biological target: T1, ΔF508-CFTR; test: Ussing measurements; type: cell-based; conditions: compound at 10 uM and VX-809 at 3 uM; primary hBE cells homozygous ΔF508; 24 hours treatment
Method: As discussed above, Ussing measurements are used to measure CFTR activity. In this method, primary lung epithelial cells (hBEs) homozygous for the Cystic Fibrosis-causing ΔF508 mutation are differentiated for a minimum of 4 weeks in an air-liquid interface on SnapWell filter plates prior to the Ussing measurements. Cells are apically mucus-washed for 30 minutes prior to treatment with compounds. The basolateral media is removed and replaced with media containing the compound of interest diluted to its final concentration from DMSO stocks. Treated cells are incubated at 37° C. and 5% CO2 for 24 hours. At the end of the treatment period, the cells on filters are transferred to the Ussing chamber and equilibrated for 30 minutes. The short-circuit current is measured in voltage clamp-mode (Vhold=0 mV), and the entire assay is conducted at a temperature of 36° C. −36.5° C. Once the voltages stabilized, the chambers are clamped, and data is recorded by pulse readings every 5 seconds. Following baseline current stabilization, the following additions can be applied and the changes in current and resistance of the cells can be monitored: • 1. Benzamil to the apical chamber to inhibit ENaC sodium channel. • 2. Forskolin to both chambers to activate ΔF508-CFTR by phosphorylation. • 3. Genistein to both chambers to potentiate ΔF508-CFTR channel opening. • 4. CFTRinh-172 to the apical chamber to inhibit ΔF508-CFTR Cl-conductance.
The inhibitable current (that current that is blocked by CFTRinh-172) is measured as the specific activity of the ΔF508-CFTR channel, and increases in response to compound in this activity over that observed in vehicle-treated samples are identified as the correction of ΔF508-CFTR function imparted by the compound tested.

Row | Compound | leq (AUC of equivalent chloride current, activity relative to VX-809) (ΔF508-CFTR [1]) | Ussing (CFTRinh-172 inhibitable current, activity relative to VX-809) (ΔF508-CFTR [2])
1 | O=C(NCCCn1ccnc1)c1ncc(-c2ccccc2)s1 [Example 4, N-(3-(1H-imidazol-1-yl)propyl)-5-phenylthiazole-2-carboxamide] | ** (activity ≥200% of VX-809 (1 uM) with compound at 10 uM and VX-809 at 1 uM) | 
2 | O=C(NCCc1nnc(CO)s1)c1ncc(-c2ccccc2)s1 [Example 6, N-(2-(5-(hydroxymethyl)-1,3,4-thiadiazol-2-yl)ethyl)-5-phenylthiazole-2-carboxamide] | ** (activity ≥200% of VX-809 (1 uM) with compound at 10 uM and VX-809 at 1 uM) | ## (activity ≥200% of VX-809 (3 uM) with compound at 10 uM and VX-809 at 3 uM)
3 | O=C(NCC1CCCO1)c1ncc(-c2ccccc2)s1 (stereo not drawn) [Example 1, 5-phenyl-N-((tetrahydrofuran-2-yl)methyl)thiazole-2-carboxamide] | ** (activity ≥200% of VX-809 (1 uM) with compound at 10 uM and VX-809 at 1 uM) | 
4 | O=C(NCCN1CCOCC1)c1ncc(-c2ccccc2)s1 [Example 3, N-(2-morpholinoethyl)-5-phenylthiazole-2-carboxamide] | ** (activity ≥200% of VX-809 (1 uM) with compound at 10 uM and VX-809 at 1 uM) | 
5 | Cc1nnn(CCNC(=O)c2ncc(-c3ccccc3)s2)c1CO [Example 9, N-(2-(5-(hydroxymethyl)-4-methyl-1H-1,2,3-triazol-1-yl)ethyl)-5-phenylthiazole-2-carboxamide] | ** (activity ≥200% of VX-809 (1 uM) with compound at 10 uM and VX-809 at 1 uM) | 
6 | C[C@@H](O)c1nnc(C2CC(NC(=O)c3ncc(-c4ccccc4)s3)C2)o1 (stereo partly drawn) [Example 11] |  | ## (activity ≥200% of VX-809 (3 uM) with compound at 10 uM and VX-809 at 3 uM)
7 | O=C(NC1CC(n2cc(CO)nn2)C1)c1ncc(-c2ccccc2)s1 (stereo not drawn) [Example 12, N-trans-3-(5-(hydroxymethyl)-1H-1,2,3-triazol-1-yl)cyclobutyl)-5-phenylthiazole-2-carboxamide] |  | ## (activity ≥200% of VX-809 (3 uM) with compound at 10 uM and VX-809 at 3 uM)
8 | Cc1c(CO)nnn1CCNC(=O)c1ncc(-c2ccccc2)s1 [Example 8, N-(2-(4-(hydroxymethyl)-5-methyl-1H-1,2,3-triazol-1-yl)ethyl)-5-phenylthiazole-2-carboxamide] | ** (activity ≥200% of VX-809 (1 uM) with compound at 10 uM and VX-809 at 1 uM) | ## (activity ≥200% of VX-809 (3 uM) with compound at 10 uM and VX-809 at 3 uM)
9 | Cn1nccc1CCCNC(=O)c1ncc(-c2ccccc2)s1 [Example 5, N-(3-(1-methyl-1H-pyrazol-5-yl)propyl)-5-phenylthiazole-2-carboxamide] | * (activity 100-200% of VX-809 (1 uM) with compound at 10 uM and VX-809 at 1 uM) | 
10 | COCCNC(=O)c1ncc(-c2ccccc2)s1 [Example 2, N-(2-methoxyethyl)-5-phenylthiazole-2-carboxamide] | ** (activity ≥200% of VX-809 (1 uM) with compound at 10 uM and VX-809 at 1 uM) | 
11 | O=C(NCCc1nnc(CO)o1)c1ncc(-c2ccccc2)s1 [Example 7, N-(2-(5-(hydroxymethyl)-1,3,4-oxadiazol-2-yl)ethyl)-5-phenylthiazole-2-carboxamide] | ** (activity ≥200% of VX-809 (1 uM) with compound at 10 uM and VX-809 at 1 uM) | ## (activity ≥200% of VX-809 (3 uM) with compound at 10 uM and VX-809 at 3 uM)
12 | O=C(NC1CC(c2nnc(CO)o2)C1)c1ncc(-c2ccccc2)s1 (stereo not drawn) [Example 10, N-cis-3-(5-(hydroxymethyl)-1,3,4-oxadiazol-2-yl)cyclobutyl)-5-phenylthiazole-2-carboxamide] |  | ## (activity ≥200% of VX-809 (3 uM) with compound at 10 uM and VX-809 at 3 uM)
